According to US20260124311A1, “POLYMER-DRUG CONJUGATES FOR STING PATHWAY ACTIVATION” (Vanderbilt University, priority 2022, published 2026):

Columns and labels:
IRF and NF-kb pathway = assay: THP-1 Dual reporter assay of IRF and NF-kb pathway activation; assay type: cell-based, human; details: FIG. 19A-B
Protocol: Activation of STING. THP1-Dual cells (InvivoGen) were cultured in Roswell Park Memorial Institute (RPMI) 1640 Medium (Gibco) supplemented with 2 mM L-glutamine, 25 mM HEPES, 10% heat-inactivated fetal bovine serum (HI-FBS; Gibco), 100 U mL^−1, penicillin/100 μg mL^−1, streptomycin (Gibco), and 100 μg/mL Normocin. Cells were subjected to 10 μg/mL Blasticidin and 100 μg/mL Zeocin for continual selection after every cell passage. 96-well plates (REF 655180; Greiner Bio-One) were used for screening agonist activity. Reporter cells were seeded at 25,000 cells/well in 100 μL media and treatments were administered in 100 μL of medium. Results were collected 24 hours after treatment using a Quanti-Luc™ (InvivoGen) assay on cell supernatants following manufacturer's instructions. Luminescence was quantified using a plate reader (Synergy H1 Multi-Mode Microplate Reader; Biotek) after supernatants were transferred to opaque-bottom 96-well plates (REF 655073; Greiner Bio-One).

[1] = tested on: STING knockout THP1 Dual cell line; assay: STING knockout THP1 Dual cell line reporter assay; assay type: cell-based, human; details: FIG. 19C-D
[2] = tested on: Interferon-β, CXCL10, TNF, IL-6; assay: PCR analysis of kinetics of STING-mediated gene expression; assay type: cell-based
[3] = tested on: GFP-STING expressing murine embryonic fibroblasts; details: FIG. 21

In the case of “diABZI(CTA)-DMA-50k [50 kDa diABZI-DMA (33)]”, the “IRF and NF-kb pathway activation” value (IRF and NF-kb pathway) was “both signaling pathways are engaged”, the “IRF and NF-κβ responses in STING knockout cells” value [1] was “lack of activity” and the “time to activation of STING signaling after endocytosis” value [2] was ≤ 2 h. For the same substance, the “STING activation dynamics (STING-puncta, confocal)” value [3] was “delayed STING activation”.
